Laboratory results from patent US20250136722A1, “CYTOTOXICITY TARGETING CHIMERAS” (GLAXOSMITHKLINE INTELLECTUAL PROPERTY DEVELOPMENT LIMITED, priority 2021, published 2025).
Several values for one entry are separate records, joined by “and”; a condition that tells them apart may be missing. Equal entries are not always repeated.

Key:
[1] = biological target: Anti-cotinine antibody (SEQ ID NO: 11 / SEQ ID NO: 12, rabbit variable region with human IgG1 Fc domain); experiment: Binding of anti-cotinine antibody to ARM compounds by SPR, Biacore T200, 37° C. (Example 202); conditions: pH 7.4, rabbit variable region/human IgG1 Fc antibody captured on protein A
Method: Anti-cotinine antibodies having a heavy chain sequence of SEQ ID NO: 11 and a light chain sequence of SEQ ID NO: 12 (rabbit variable region with human IgG1 Fc domain containing a DE mutation (S239D/1332E)) were captured on one or more flow cells of a protein A sensor chip (Cytiva) using a Biacore T200 while reserving flow cell 1 as a reference. Following capture, a 3000 second wait step was included to reduce drift during compound analysis. ARM compounds of Formula (I) were then injected at 100 μL/min with 200 and 2000 second association and dissociation times. The entire experiment was run at 37° C. with running buffer containing 10 mM HEPES pH 7.4, 150 mM NaCl, 0.005% P20 and 1% DMSO. ARM compounds of Formula (I) were titrated with a top concentration of 200 nM using a 3-fold 5-point dilution series and a corresponding 5-injection buffer cycle was run for blank subtraction. Data were double referenced by subtracting the response of the reference flow cell from that of the antibody-containing flow cell and subsequently subtracting the referenced blank sensorgrams. Following compound analysis, the surface was regenerated using a 30 second injection of pH 1.5 glycine at a flow rate of 30 μL/min after which antibody was re-captured. The experiment was run using Biacore T200 control software and evaluated using Biacore T200 Evaluation software. Curves were fit with a 1:1 kinetic binding model to obtain kon(1/Ms), koff(1/s), Kd (M) determined as koff/kon, and residence time determined as 1/koff. (s).
Anti-cotinine antibody was tested for binding to ARMs compounds of Formula (I) of the invention in the above assay in or more experimental runs and the results are shown in Table 5 below. Affinity is reported as a pKd value. The pKd value is the negative log of the Kd value, wherein the Kd value is the dissociation constant measured in molar (M) as noted above. For compounds tested in more than one experimental run, the pKd value is reported as an average.

[2] = biological target: T1, CHOK1 cells engineered to overexpress human CCR2 (Homo sapiens, UniProt P41597); experiment: Antibody dependent cellular cytotoxicity (ADCC) reporter assay (Example 199); assay type: cell-based; conditions: with anti-cotinine antibody SEQ ID NO: 11/12; CHOK1-human CCR2 target cells, Jurkat FcγRIIIa NFAT-luciferase reporter cells; 12-18 hours; read-out: ADCC Reporter Assay pEC50 (converted)
T1 construct: expressed in transfected cells; host or cells: CHOK1 cells
Procedure, shortened: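 CHOK1-hCCR2 target cells are co-incubated for 12–18 h with Jurkat FcγRIIIa/NFAT-luciferase reporter cells, ARM compound (1 pM–10 μM) and anti-cotinine antibody with a DE-mutant human IgG1 Fc (0.01–200 μg/mL). Luminescence is expressed as signal:background against no-compound wells; EC50 comes from nonlinear fit and is reported as pEC50, averaged across runs.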

[3] = biological target: human alpha1 nicotinic acetylcholine (nACh) receptor (Homo sapiens, UniProt P02708+Q07001); experiment: Nicotinic acetylcholine receptor antagonism assay, IONFlux automated patch clamp (Example 203); assay type: cell-based; conditions: for Emax at 10 µM: maximum percentage antagonism at maximum concentration tested 10 μM, read-out: Maximum Response (%); for IC50: nAChR antagonism, ACh stimulated, patch clamp
Method: Cells expressing human alpha1 nicotinic acetylcholine (nACh) receptor (nAChR) were washed and dissociated using Trypsin containing buffer. Cells were then washed and seeded at a density of 3-5 million cells/mL and allowed to grow for 3 days. Then, 60-80 μL of cells were added to plates and incubated with dose response of an ARM compound of Formula (I) with a top concentration of either 10 μM or 100 μM. The receptor was then stimulated via addition of acetylcholine (ACh) and activation of the receptor was monitored via the IONFlux automated patch clamp system. IonFlux Data Analyzer software was utilized to perform leak subtraction and measure (min) peak current amplitude.
Data processing: (1) Current values recorded for vehicle only applications in individual traps/patterns were subtracted from corresponding current amplitude values for control, test article and control+test article. (2) Control response was calculated as % of the average response of the 3rd out of total 3 ACh (10 mM) applications alone. In rare situations, if the 3rd ACh response was obscured due to technical artifacts, the 2nd and/or 1 st ACh (10 mM) application was considered as control. The peak current amplitude generated in the presence of each test article concentration was then used to calculate the % inhibition as compared to control response (10 mM ACh alone). These estimates were further corrected for vehicle response and run down corrected by normalizing with time matched control responses (10 mM ACh alone). The corrected percentages were then fit with a non-linear function in GraphPad Prism 6 (or later versions) to determine the […].
Exclusion criteria: (i) any n's with poor recording quality, (ii) control current amplitude <500 pA or (iii) significant outliers, as determined by the Grubbs' test.
ARMs compounds of Formula (I) of the invention were tested for antagonism of the nAChR in the above assay in […] experimental runs and the results are shown in Table 7 below. Antagonistic activity of the compounds of Formula (I) of the invention is reported as an IC50 value (half maximal inhibitory concentration) and the maximum percentage antagonism observed at the highest concentration of compound of Formula (I) tested, as indicated in Table 7. For compounds tested in more than one experimental run, the IC50 value is reported as an average.

Sequence of human alpha1 nicotinic acetylcholine (nACh) receptor (P02708 21-457): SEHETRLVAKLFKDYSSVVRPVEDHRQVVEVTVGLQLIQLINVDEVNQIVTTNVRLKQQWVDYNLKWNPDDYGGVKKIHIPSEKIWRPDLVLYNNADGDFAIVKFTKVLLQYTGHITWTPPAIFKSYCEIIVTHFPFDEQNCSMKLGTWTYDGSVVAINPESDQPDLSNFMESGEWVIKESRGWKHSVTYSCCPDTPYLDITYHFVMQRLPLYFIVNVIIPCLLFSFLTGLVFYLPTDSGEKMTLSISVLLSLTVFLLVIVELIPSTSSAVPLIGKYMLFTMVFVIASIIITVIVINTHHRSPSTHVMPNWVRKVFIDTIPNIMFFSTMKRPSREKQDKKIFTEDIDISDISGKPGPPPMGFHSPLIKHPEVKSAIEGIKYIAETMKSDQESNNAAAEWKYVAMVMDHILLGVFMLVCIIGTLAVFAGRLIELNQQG
Sequence of human alpha1 nicotinic acetylcholine (nACh) receptor (P11230 24-501 partner): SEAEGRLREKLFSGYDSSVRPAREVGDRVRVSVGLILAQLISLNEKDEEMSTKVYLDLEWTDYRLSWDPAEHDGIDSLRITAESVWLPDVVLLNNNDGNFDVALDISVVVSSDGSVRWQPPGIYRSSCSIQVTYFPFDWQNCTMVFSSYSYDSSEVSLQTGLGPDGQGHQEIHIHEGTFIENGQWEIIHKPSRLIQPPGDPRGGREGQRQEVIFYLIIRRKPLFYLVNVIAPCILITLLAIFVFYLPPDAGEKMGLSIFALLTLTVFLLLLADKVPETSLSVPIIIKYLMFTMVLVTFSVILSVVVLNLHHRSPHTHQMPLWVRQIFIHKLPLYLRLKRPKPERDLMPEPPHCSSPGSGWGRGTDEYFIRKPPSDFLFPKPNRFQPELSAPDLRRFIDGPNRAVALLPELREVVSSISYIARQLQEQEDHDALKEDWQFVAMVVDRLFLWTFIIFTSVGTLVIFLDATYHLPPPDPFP
Sequence of human alpha1 nicotinic acetylcholine (nACh) receptor (Q07001 22-517): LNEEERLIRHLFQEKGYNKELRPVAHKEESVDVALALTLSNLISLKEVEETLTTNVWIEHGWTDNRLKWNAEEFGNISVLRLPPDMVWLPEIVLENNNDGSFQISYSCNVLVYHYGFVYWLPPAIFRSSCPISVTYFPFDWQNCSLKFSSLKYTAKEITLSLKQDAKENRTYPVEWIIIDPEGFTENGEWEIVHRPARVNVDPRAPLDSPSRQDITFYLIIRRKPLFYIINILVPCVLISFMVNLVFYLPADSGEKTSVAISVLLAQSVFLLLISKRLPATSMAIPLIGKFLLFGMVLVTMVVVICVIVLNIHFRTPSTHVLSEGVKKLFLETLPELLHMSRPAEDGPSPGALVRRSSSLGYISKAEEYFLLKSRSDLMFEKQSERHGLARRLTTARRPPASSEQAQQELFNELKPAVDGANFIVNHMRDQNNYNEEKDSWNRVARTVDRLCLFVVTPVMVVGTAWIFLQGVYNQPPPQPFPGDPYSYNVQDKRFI

Structure (SMILES) | pKd of Antibody for ARM Compound of Formula (I) [1] | Emax at 10 µM [3] [%] | IC50 [3] [nM] | EC50 [2]
CN1C(=O)C[C@H](C(=O)NCCO[C@H]2CC[C@@H](OCCCC(=O)N[C@H]3CC[C@H](C(=O)N[C@@H]4C[C@H](NC(C)(C)C)CC[C@@H]4N4CC[C@H](Nc5ncnc6ccc(C(F)(F)F)cc56)C4=O)CC3)CC2)[C@H]1c1cccnc1 [Example 2] | 9.4775 | – | – | 5.06 nM
CC(C)N(C)[C@@H]1CC[C@H](N2CC[C@H](Nc3ncnc4ccc(C(F)(F)F)cc34)C2=O)[C@H](NC(=O)[C@H]2CC[C@@H](NC(=O)CCCO[C@H]3CC[C@@H](OCCNC(=O)[C@H]4CC(=O)N(C)[C@@H]4c4cccnc4)CC3)CC2)C1 [Example 3] | 9.2795 | – | – | 0.155 nM and 0.283 nM
CC(C)N(C)[C@@H]1CC[C@H](N2CC[C@H](Nc3ncnc4ccc(C(F)(F)F)cc34)C2=O)[C@H](NC(=O)[C@H]2CC[C@H](NC(=O)CCCO[C@H]3CC[C@@H](OCCNC(=O)[C@H]4CC(=O)N(C)[C@@H]4c4cccnc4)CC3)CC2)C1 [Example 4] | 9.526 | – | – | 6.3 nM and 2.79 nM and 4.89 nM
CC(C)N(C)[C@@H]1CC[C@H](N2CC[C@H](Nc3ncnc4ccc(C(F)(F)F)cc34)C2=O)[C@H](NC(=O)CCOCCNC(=O)CCCO[C@H]2CC[C@@H](OCCNC(=O)[C@H]3CC(=O)N(C)[C@@H]3c3cccnc3)CC2)C1 [Example 6] | 9.282 | – | – | 0.378 nM
CC(C)N(C)[C@@H]1CC[C@H](N2CC[C@H](Nc3ncnc4ccc(C(F)(F)F)cc34)C2=O)[C@H](NC(=O)[C@H]2CC[C@H](NC(=O)CCCO[C@H]3CC[C@H](OCCNC(=O)[C@H]4CC(=O)N(C5CC5)[C@@H]4c4cccnc4)CC3)CC2)C1 [Example 13] | 10.511 | – | – | –
CC(C)N(C)[C@@H]1CC[C@H](N2CC[C@H](Nc3ncnc4ccc(C(F)(F)F)cc34)C2=O)[C@H](NC(=O)[C@H]2CC[C@H](CNC(=O)CCCC(=O)NCCCOCCCNC(=O)[C@H]3CC(=O)N(C)[C@@H]3c3cccnc3)CC2)C1 [Example 20] | 8.8705 | – | – | 0.0832 nM
CC(C)N(C)[C@@H]1CC[C@H](N2CC[C@H](Nc3ncnc4ccc(C(F)(F)F)cc34)C2=O)[C@H](NC(=O)C2CCN(C(=O)CCOCCOCCOCCNC(=O)[C@H]3CC(=O)N(C)[C@@H]3c3cccnc3)CC2)C1 [Example 29] | 9.3345 | – | – | 12.6 nM
CN1C(=O)C[C@H](C(=O)NCCOCCOCCOCCC(=O)N[C@H]2CC[C@H](C(=O)N[C@@H]3C[C@H](NC(C)(C)C)CC[C@@H]3N3CC[C@H](Nc4ncnc5ccc(C(F)(F)F)cc45)C3=O)CC2)[C@H]1c1cccnc1 [Example 31] | 9.3015 | – | – | 7.94 nM
CC(C)N(C)[C@@H]1CC[C@H](N2CC[C@H](Nc3ncnc4ccc(C(F)(F)F)cc34)C2=O)[C@H](NC(=O)[C@H]2CC[C@H](CNC(=O)CCOCCOCCOCCNC(=O)[C@H]3CC(=O)N(C)[C@@H]3c3cccnc3)CC2)C1 [Example 32] | 9.1825 | – | – | 1.07 nM and 0.593 nM
CC(C)N(C)[C@@H]1CCC(N2CC[C@H](Nc3ncnc4ccc(C(F)(F)F)cc34)C2=O)[C@H](NC(=O)CCOCCOCCOCCOCCOCCOCCOCCOCCNC(=O)[C@H]2CC(=O)N(C)[C@@H]2c2cccnc2)C1 (some centres unmarked) [Example 42] | 9.23 | – | – | 0.398 nM
CC(C)N(C)[C@@H]1CC[C@H](N2CC[C@H](Nc3ncnc4ccc(C(F)(F)F)cc34)C2=O)[C@H](NC(=O)CCOCCNC(=O)CCOCCNC(=O)CCOCCNC(=O)[C@H]2CC(=O)N(C)[C@@H]2c2cccnc2)C1 [Example 46] | 9.074 | – | – | 0.501 nM
CC(C)N(C)[C@@H]1CC[C@H](N2CC[C@H](Nc3ncnc4ccc(C(F)(F)F)cc34)C2=O)[C@H](NC(=O)COCCNC(=O)CCOCCNC(=O)CCOCCNC(=O)[C@H]2CC(=O)N(C)[C@@H]2c2cccnc2)C1 [Example 47] | 9.051 | – | – | 2.84 nM

The next lines start with results.

pKd of Antibody for ARM Compound of Formula (I) [1] | Emax at 10 µM [3] [%] | IC50 [3] [nM] | Structure (SMILES) | EC50 [2]
9.1485 | – | – | CC(C)N(C)[C@@H]1CC[C@H](N2CC[C@H](Nc3ncnc4ccc(C(F)(F)F)cc34)C2=O)[C@H](NC(=O)COCCNC(=O)CCOCCOCCNC(=O)CCNC(=O)[C@H]2CC(=O)N(C)[C@@H]2c2cccnc2)C1 [Example 50] | 1.41 nM
9.558 | – | – | CC(C)N(C)[C@@H]1CC[C@H](N2CC[C@H](Nc3ncnc4ccc(C(F)(F)F)cc34)C2=O)[C@H](NC(=O)[C@H]2CC[C@@H](NC(=O)CCCOC[C@H]3CC[C@@H](COCCNC(=O)[C@H]4CC(=O)N(C)[C@@H]4c4cccnc4)CC3)CC2)C1 [Example 61] | –
– | 67.1 | 4660 | CC(C)N(C)[C@@H]1CC[C@H](N2CC[C@H](Nc3ncnc4ccc(C(F)(F)F)cc34)C2=O)[C@H](NC(=O)c2ccc(C3CCN(CCOCCOCCNC(=O)[C@H]4CC(=O)N(C)[C@@H]4c4cccnc4)CC3)cn2)C1 [Example 94] | 10 nM
– | 16.8 | > 10000 | CC(C)N(C)[C@@H]1CC[C@H](N2CC[C@H](Nc3ncnc4ccc(C(F)(F)F)cc34)C2=O)[C@H](NC(=O)c2ccc(N3CCC(C(=O)NCCOCCOCCNC(=O)[C@H]4CC(=O)N(C)[C@@H]4c4cccnc4)CC3)cc2)C1 [Example 130, 1-(4-(((1R,2S,5R)-5-(Isopropyl(methyl)amino)-2-((S)-2-oxo-3-((6-(trifluoromethyl)quinazolin-4-yl)amino)pyrrolidin-1-yl)cyclohexyl)carbamoyl)phenyl)-N-(2-(2-(2-((2S,3S)-1-methyl-5-oxo-2-(pyridin-3-yl)pyrrolidine-3-carboxamido)ethoxy)ethoxy)ethyl)piperidine-4-carboxamide] | 3.98 nM
– | 18.2 | > 10000 | CC(C)N(C)[C@@H]1CC[C@H](N2CC[C@H](Nc3ncnc4ccc(C(F)(F)F)cc34)C2=O)[C@H](NC(=O)[C@H]2CC[C@H](c3ccc(C(=O)NCCOCCOCCNC(=O)[C@H]4CC(=O)N(C)[C@@H]4c4cccnc4)cc3)CC2)C1 [Example 140] | 3.16 nM
– | 13.1 | > 10000 | CC(C)N(C)[C@@H]1CC[C@H](N2CC[C@H](Nc3ncnc4ccc(C(F)(F)F)cc34)C2=O)[C@H](NC(=O)C2CCN(c3ccc(C(=O)NCCOCCOCCNC(=O)[C@H]4CC(=O)N(C)[C@@H]4c4cccnc4)cc3)CC2)C1 [Example 142] | 0.501 nM
– | 69.2 | 6390 | CC(C)N(C)[C@@H]1CC[C@H](N2CC[C@H](Nc3ncnc4ccc(C(F)(F)F)cc34)C2=O)[C@H](NC(=O)CCOCCN2CCC3(CCC(C(=O)NCCNC(=O)[C@H]4CC(=O)N(C)[C@@H]4c4cccnc4)CC3)CC2)C1 [compound 184] | 0.398 nM
